According to patent US12479794B2, “Acetophenone oxime compound and application thereof” (Medshine Discovery Inc., priority 2020, dated 2025):

Tests used:
S1P4 = biological target: T1, S1P4 (Homo sapiens, UniProt O95977); assay: In vitro agonistic activity on S1P4, PathHunter cell line; format: cell-based; conditions: PathHunter cells
T1 construct: expressed in transfected cells
T1 sequence (O95977 1-384): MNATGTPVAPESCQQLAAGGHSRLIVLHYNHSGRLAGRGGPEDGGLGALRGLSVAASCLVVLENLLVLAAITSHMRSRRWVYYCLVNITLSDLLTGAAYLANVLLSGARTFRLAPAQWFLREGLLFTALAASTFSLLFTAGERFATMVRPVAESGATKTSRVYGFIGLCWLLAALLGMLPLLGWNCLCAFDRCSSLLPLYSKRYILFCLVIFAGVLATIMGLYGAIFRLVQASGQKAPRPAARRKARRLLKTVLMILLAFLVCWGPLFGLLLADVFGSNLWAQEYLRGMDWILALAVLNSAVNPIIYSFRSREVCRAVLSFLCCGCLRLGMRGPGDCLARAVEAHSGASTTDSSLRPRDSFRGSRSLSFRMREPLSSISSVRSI
Procedure: (§1) Assay Example 5: In Vitro Evaluation of the Agonistic Activity of the Compound of the Present Disclosure on S1P2, S1P3 and S1P4
(§2) Object of the assay: To detect the agonistic activity of the compound on S1P2, S1P3, and S1P4
(§3) • 1. PathHunter cell line was expanded from freezer according to standard procedures. • 2. Cells were seeded into a white 384-well microplate in a total volume of 20 μL and incubated at 37° C. for an appropriate time prior to testing. II. Agonist Assay • 1. For the agonist assay, cells were incubated with a sample to induce a response. • 2. Stock solution was stored in a buffer at a concentration of 5 times the concentration to be tested. • 3. 5 μl of the stock solution sample at a concentration of 5 times the concentration to be tested was added to the cells and incubated at 37° C. or room temperature for 90-180 min with a vehicle concentration of 1%. III. Signal Detection • 1. […] Chemiluminescent Signal detection was performed using a PerkinElmer Envision™ instrument, and the microplate was read after signal generation. […] The activity of the compound was analyzed using the CBIS data analysis suite (ChemInnovation, CA). • 2. For the agonist mode assay, the percent activity was calculated using the following formula: % Activity=100%×(Mean RLU of the Assay Sample−Mean RLU of the Blank Control)/(Mean MAX Control Ligand−Mean RLU of the Blank Control).

S1P2 = biological target: T2, S1P2 (Homo sapiens, UniProt O95136); assay: In vitro agonistic activity on S1P2, PathHunter cell line; format: cell-based; conditions: PathHunter cells
T2 construct: expressed in transfected cells
Procedure: as §1, §2, §3

S1P1 = biological target: T3, S1P1 (Homo sapiens, UniProt P21453); assay: In vitro agonistic activity on S1P1, U2OS-EDG1 cells, LiveBLAzer FRET B/G; format: cell-based
T3 construct: host or cells: U2OS
Procedure: Assay Example 1: In Vitro Evaluation of the Agonistic Activity of the Compounds of the Present Disclosure on S1P1
Object of the assay: To detect the agonistic activity of compounds on S1P1
• 1. Cells U2OS-EDG1 (Batch No.: Invitrogen-K1520) were taken out of a liquid nitrogen tank and placed in a 37° C. water bath to thaw quickly; • 2. The cell suspension was aspirated into a 15 ml centrifuge tube, resuspended in 5 ml of preheated medium, and centrifuged at 1000 rpm for 5 min; • 3. The supernatant was discarded. The cells were resuspended in 10 ml of medium, transferred into a T75 culture flask, and cultivated in an incubator with 5% CO2 at 37° C. II. Agonist Assay • 1. The compounds were diluted to working concentrations, and serially diluted 3-fold by Echo 555 (manufacturer: Labcyte) to obtain 10 concentrations; 200 nL of each concentration of the compound was transferred to a cell plate and centrifuged at 1000 rpm for 15 seconds; • 2. Culture medium was aspirated from the culture flask; 4 mL of Dulbecco's phosphate buffer (DPBS, supplier: Coring, item No.: 21-031-CVR, batch No.: 03318006) was added, and the residual serum was washed away; 2 mL of trypsin was added; The mixture was incubated in an incubator at 37° C. for 2 min, and the cells were digested; 10 mL of seeding medium was added to resuspend the cells; 0.6 mL of cell suspension was taken out and counted; • 3. The density of cells was adjusted to 1.88E+05 cells/mL using seeding medium, with 40 μL per well (7500\well); 40 μL of FreeStyle™ Expression medium was added around the cell plate; The plate was let stand at room temperature for 15 min and incubated at 37° C. with 5% CO2 for 20 hours. III. Signal Detection • 1. LiveBLAzer™-FRET B/G Substrate (CCF4-AM) assay reagents were formulated according to the instructions; • 2. 8 μL of 6×Substrate Mixture was added to each well of the cell plate; The plate was centrifuged at 1000 rpm for 15 seconds, covered with a film, and incubated at 23° C. for 2 hours; The cell plate was subjected to Envision […] detection. IV. Data Analysis • 1. The raw data were converted into % Effect by using an equation, and the EC50 value can be obtained by curve fitting with four parameters [“log(agonist) vs. response—Variable slope” model in GraphPad Prism]; • 2. Calculation formula: Ratio=(460 nm−blank)/(535 nm−blank) % Effect=(SampleRatio−Ave LCRatio)/(Ave HCRatio−Ave LCRatio)×100%

[1] = Metabolite identification after incubation in human hepatocytes; format: in vitro ADME; conditions: 10 μM, 37° C., 2 hours
Procedure: Assay Example 4: Analysis and Identification of Metabolites of the Compound in Human Liver Microsome and Hepatocyte Incubation System
By using high-resolution mass spectrometry, the metabolite produced by the incubation of compound 32B in human liver microsomes and human hepatocytes was found, and identified for its structure; the percentage content of compound 32B and its metabolite was calculated by using LC-UV; and the possible biotransformation pathway of compound 32B in human liver microsomes and human hepatocytes in vitro was studied.
Compound 32B (10 μM) was incubated in mouse, rat, canine, monkey, and human hepatocyte systems at 37° C. for 120 min. 7-ethoxycoumarin (7-EC, 30 μM) was used as a positive control to evaluate the enzymatic metabolic activity in the hepatocyte incubation system. The incubated sample was analyzed by LC-UV-MS. The structure of each metabolite was resolved and identified based on its primary and secondary mass spectrometry signals and/or comparison with a standard. The relative percentage of the UV-integrated peak area of each metabolite was given through data collected from the sample by HPLC-UV-MS, and the possible structure of the metabolite and its possible metabolic pathway in various genera of hepatocytes were inferred from the mass spectrometry information of the metabolite.

T3 sequence (P21453 whole entry): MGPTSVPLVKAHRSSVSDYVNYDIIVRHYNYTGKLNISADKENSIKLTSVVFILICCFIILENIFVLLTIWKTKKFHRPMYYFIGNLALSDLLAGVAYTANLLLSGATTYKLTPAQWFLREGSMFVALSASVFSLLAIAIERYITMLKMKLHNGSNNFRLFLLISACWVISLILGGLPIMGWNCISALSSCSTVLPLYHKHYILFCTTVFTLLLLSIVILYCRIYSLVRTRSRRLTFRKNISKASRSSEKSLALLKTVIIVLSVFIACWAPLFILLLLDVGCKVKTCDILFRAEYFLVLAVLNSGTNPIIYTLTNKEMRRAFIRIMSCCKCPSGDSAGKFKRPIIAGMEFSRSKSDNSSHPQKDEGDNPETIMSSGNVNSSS
T2 sequence (O95136 whole entry): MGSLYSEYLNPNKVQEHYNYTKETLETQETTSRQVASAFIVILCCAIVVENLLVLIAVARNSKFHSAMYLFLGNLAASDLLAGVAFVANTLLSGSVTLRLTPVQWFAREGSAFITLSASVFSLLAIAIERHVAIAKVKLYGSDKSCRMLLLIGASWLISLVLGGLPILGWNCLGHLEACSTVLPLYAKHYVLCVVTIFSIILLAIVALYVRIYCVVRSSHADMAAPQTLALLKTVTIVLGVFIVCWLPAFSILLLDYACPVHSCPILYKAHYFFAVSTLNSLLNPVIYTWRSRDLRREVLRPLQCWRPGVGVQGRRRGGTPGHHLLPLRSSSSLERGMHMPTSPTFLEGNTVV

EC50 (S1P4): > 300 nM
EC50 (S1P2): > 300 nM
EC50 (S1P1): 1.15 nM
Emax of agonistic activity on S1P1 (S1P1; % Effect): nM, 103.4%
Metabolites detected [1]: no other metabolite was detected
Relative abundance of the original drug [1]: 100.00%
SMILES: CC(=NOCc1ccc(OC(C)C)c(C(F)(F)F)c1)c1ccc2c(c1)CCC2N1CC(C(=O)O)C1 (single isomer, unassigned) [Compound 32B]
